Results: patent publication US5330897A, “Sialic acid binding lectin of protozoan origin” (South Alabama Medical Science Foundation, priority 1992, dated 1994)

Columns and labels:
[1] = system: T. mobilensis lectin; experiment: Inhibition of T. mobilensis lectin-mediated hemagglutination; format: biochemical, Tritrichomonas mobilensis; details: for Minimal Inhibitory Conc.: 2 units of hemagglutinin
[2] = system: T. augusta cell-free lysate hemagglutinin; experiment: Inhibition of HA activity of T. augusta cell-free lysate; format: biochemical, Tritrichomonas augusta
[3] = system: T. mobilensis cell-free lysate hemagglutinin; experiment: Inhibition of HA activity of T. mobilensis cell-free lysate; format: biochemical, Tritrichomonas mobilensis
[4] = system: T. foetus cell-free lysate hemagglutinin; experiment: Inhibition of HA activity of T. foetus cell-free lysate; format: biochemical, Tritrichomonas foetus
[5] = system: live T. mobilensis; experiment: Slide agglutination of live T. mobilensis by lectins; format: cell-based, Tritrichomonas mobilensis; details: carbohydrate 100 mM
Description: Agglutination of live T. mobilensis with lectins with various carbohydrate binding specificities was performed by a slide agglutination assay. Lectin Kit LK-2000 (Vector Laboratories) consisted of the following lectins: concanavalin A (ConA), wheat germ agglutinin (WGA), soybean agglutinin (SBA), gorse seed agglutinin (UEA-1), castor bean agglutinin type 1 (RCA-1), peanut agglutinin (PNA), and horse gram agglutinin (DBA). Limulus polyphemus lectin (LPA) was obtained from Sigma, and Limax flavus (LFA) agglutinin from EY Labs. Lectins and specific carbohydrates were dissolved in buffers recommended by the manufacturers. Twenty five μl of washed T. mobilensis (about 2×10^7 /ml) were placed onto a glass slide. An equal volume of lectin (200 μg/ml) or lectin with specific carbohydrate (final concentration, 100 mM) was added. After mixing for 2 to 3 min, the agglutination was evaluated under a microscope.

[6] = system: live cells of T. foetus; experiment: Inhibition of HA by live cells of T. foetus; format: cell-based, Tritrichomonas foetus

OC[C@H]1O[C@H](O[C@H]2[C@H](O)[C@@H](O)C(O)O[C@@H]2CO)[C@H](O)[C@@H](O)[C@@H]1O (mixture of isomers) [Maltose]
Minimal Inhibitory Conc. ([1]; carbohydrates): > 100 mM

CC(=O)NC1C(O)CC(OC2C(O)C(CO)OC(OC3C(CO)OC(O)C(O)C3O)C2O)(C(=O)O)OC1C(O)C(O)CO (stereo not shown) [3'-sialyllactose]
Minimal Inhibitory Conc. ([1]; carbohydrates): 2.0 mM

CC(=O)NC1C(O)CC(OCC2OC(OC3C(CO)OC(O)C(O)C3O)C(O)C(O)C2O)(C(=O)O)OC1C(O)C(O)CO (stereo not shown) [6'-sialyllactose]
Minimal Inhibitory Conc. ([1]; carbohydrates): 1.0 mM

OC1OC[C@@H](O)[C@@H](O)[C@@H]1O (stereo partly drawn) [D-arabinose]
Conc. required to inhibit 2 HA units, T. augusta ([2]; carbohydrates, […]): > 200 µg/mL | Minimal Inhibitory Conc. ([1]; carbohydrates): > 100 mM | Conc. required to inhibit 2 HA units, T. mobilensis ([3]; carbohydrates, […]): > 200 µg/mL | Conc. required to inhibit 2 HA units, T. foetus ([4]; carbohydrates, […]): > 200 µg/mL

O=C(CO)[C@@H](O)[C@H](O)[C@H](O)CO [D-fructose]
Conc. required to inhibit 2 HA units, T. augusta ([2]; carbohydrates, […]): > 200 µg/mL | Minimal Inhibitory Conc. ([1]; carbohydrates): > 100 mM | Conc. required to inhibit 2 HA units, T. mobilensis ([3]; carbohydrates, […]): > 200 µg/mL | Conc. required to inhibit 2 HA units, T. foetus ([4]; carbohydrates, […]): > 200 µg/mL

C[C@H]1OC(O)[C@H](O)[C@@H](O)[C@H]1O (stereo partly drawn) [D-fucose]
Conc. required to inhibit 2 HA units, T. augusta ([2]; carbohydrates, […]): > 200 µg/mL | Effect of specific carbohydrate on agglutinating activity of the appropriate lectin [5]: abolished agglutinating activity | Minimal Inhibitory Conc. ([1]; carbohydrates): > 100 mM | Conc. required to inhibit 2 HA units, T. mobilensis ([3]; carbohydrates, […]): > 200 µg/mL | Conc. required to inhibit 2 HA units, T. foetus ([4]; carbohydrates, […]): > 200 µg/mL

OC[C@H]1OC(O)[C@H](O)[C@@H](O)[C@H]1O (stereo partly drawn) [D-galactose]
Conc. required to inhibit 2 HA units, T. augusta ([2]; carbohydrates, […]): > 200 µg/mL | Effect of specific carbohydrate on agglutinating activity of the appropriate lectin [5]: abolished agglutinating activity | Minimal Inhibitory Conc. ([1]; carbohydrates): > 100 mM | Conc. required to inhibit 2 HA units, T. mobilensis ([3]; carbohydrates, […]): > 200 µg/mL | Conc. required to inhibit 2 HA units, T. foetus ([4]; carbohydrates, […]): > 200 µg/mL

O=C(O)[C@H]1OC(O)[C@H](O)[C@@H](O)[C@H]1O (stereo partly drawn) [D-galacturonic acid]
Minimal Inhibitory Conc. ([1]; carbohydrates): > 100 mM

OC[C@H]1OC(O)[C@H](O)[C@@H](O)[C@@H]1O (stereo partly drawn) [D-glucose]
Conc. required to inhibit 2 HA units, T. augusta ([2]; carbohydrates, […]): > 200 µg/mL | Minimal Inhibitory Conc. ([1]; carbohydrates): > 100 mM | Conc. required to inhibit 2 HA units, T. mobilensis ([3]; carbohydrates, […]): > 200 µg/mL | Conc. required to inhibit 2 HA units, T. foetus ([4]; carbohydrates, […]): > 200 µg/mL

OC[C@H]1OC(O)[C@@H](O)[C@@H](O)[C@@H]1O (stereo partly drawn) [D-mannose]
Conc. required to inhibit 2 HA units, T. augusta ([2]; carbohydrates, […]): > 200 µg/mL | Effect of specific carbohydrate on agglutinating activity of the appropriate lectin [5]: abolished agglutinating activity | Minimal Inhibitory Conc. ([1]; carbohydrates): > 100 mM | Conc. required to inhibit 2 HA units, T. mobilensis ([3]; carbohydrates, […]): > 200 µg/mL | Conc. required to inhibit 2 HA units, T. foetus ([4]; carbohydrates, […]): > 200 µg/mL

OC1OC[C@@H](O)[C@H](O)[C@H]1O (stereo partly drawn) [D-xylose]
Conc. required to inhibit 2 HA units, T. augusta ([2]; carbohydrates, […]): > 200 µg/mL | Minimal Inhibitory Conc. ([1]; carbohydrates): > 100 mM | Conc. required to inhibit 2 HA units, T. mobilensis ([3]; carbohydrates, […]): > 200 µg/mL | Conc. required to inhibit 2 HA units, T. foetus ([4]; carbohydrates, […]): > 200 µg/mL

O=P(O)(O)OC[C@H]1OC(O)[C@@H](O)[C@@H](O)[C@@H]1O (stereo partly shown) [Mannose-6-phosphate]
Minimal Inhibitory Conc. ([1]; carbohydrates): > 100 mM

CC(=O)N[C@H]1[C@H](O[C@H]2[C@H](O)[C@@H](NC(C)=O)C(O)O[C@@H]2CO)O[C@H](CO)[C@@H](O)[C@@H]1O (stereo partly shown) [N,N-diacetyl chitobiose]
Minimal Inhibitory Conc. ([1]; carbohydrates): > 100 mM

CC(=O)N[C@H]1[C@@H](O)[C@H](O)[C@@H](CO)O[C@H]1O [N-acetyl-β-D-mannosamine]
Minimal Inhibitory Conc. ([1]; carbohydrates): > 100 mM

CC(=O)N[C@H]1C(O)O[C@H](CO)[C@H](O)[C@@H]1O (stereo partly shown) [N-acetylgalactosamine]
Conc. required to inhibit 2 HA units, T. augusta ([2]; carbohydrates, […]): > 200 µg/mL | Effect of specific carbohydrate on agglutinating activity of the appropriate lectin [5]: abolished agglutinating activity | Minimal Inhibitory Conc. ([1]; carbohydrates): > 100 mM | Conc. required to inhibit 2 HA units, T. mobilensis ([3]; carbohydrates, […]): > 200 µg/mL | Conc. required to inhibit 2 HA units, T. foetus ([4]; carbohydrates, […]): > 200 µg/mL

CC(=O)N[C@H]1C(O)O[C@H](CO)[C@@H](O)[C@@H]1O[C@H](C)C(=O)O (stereo partly shown) [N-acetylmuramic acid]
Minimal Inhibitory Conc. ([1]; carbohydrates): > 100 mM

COC1(C(=O)O)CC(O)C(NC(C)=O)C(C(O)C(O)CO)O1 (stereo not drawn) [N-acetylneruaminic acid β-methyl glycoside]
Minimal Inhibitory Conc. ([1]; carbohydrates): > 100 mM

COC(=O)C1(OC)CC(O)C(NC(C)=O)C(C(O)C(O)CO)O1 (stereo not drawn) [N-acetylneuraminic acid methyl ester, β-methyl glycoside]
Minimal Inhibitory Conc. ([1]; carbohydrates): > 100 mM

OC[C@H]1O[C@@](CO)(O[C@H]2O[C@H](CO)[C@@H](O)[C@H](O)[C@H]2O)[C@@H](O)[C@@H]1O [Sucrose]
Conc. required to inhibit 2 HA units, T. augusta ([2]; carbohydrates, […]): > 200 µg/mL | Minimal Inhibitory Conc. ([1]; carbohydrates): > 100 mM | Conc. required to inhibit 2 HA units, T. mobilensis ([3]; carbohydrates, […]): > 200 µg/mL | Conc. required to inhibit 2 HA units, T. foetus ([4]; carbohydrates, […]): > 200 µg/mL

O=P(O)(O)OC1O[C@H](CO)[C@@H](O)[C@H](O)[C@@H]1O (stereo partly shown) [mannose-1-phosphate]
Minimal Inhibitory Conc. ([1]; carbohydrates): > 100 mM

Avidin: glycoprotein or protein tested as inhibitor
Minimal Inhibitory Conc. ([1]; glycoproteins or proteins): > 1000 µg/mL

Bovine Albumin: glycoprotein or protein tested as inhibitor
Minimal Inhibitory Conc. ([1]; glycoproteins or proteins): > 1000 µg/mL

Bovine submaxillary mucin
Conc. required to inhibit 2 HA units, T. augusta ([2]; sialoglycoproteins): 40 µg/mL | Conc. required to Inhibit 2 HA Units [6]: 125 µg/mL | Minimal Inhibitory Conc. ([1]; glycoproteins or proteins): 0.65 µg/mL | Conc. required to inhibit 2 HA units, T. mobilensis ([3]; sialoglycoproteins): 60 µg/mL | Conc. required to inhibit 2 HA units, T. foetus ([4]; sialoglycoproteins): 60 µg/mL

Egg Albumin: glycoprotein or protein tested as inhibitor
Minimal Inhibitory Conc. ([1]; glycoproteins or proteins): > 1000 µg/mL

Fibronectin
Minimal Inhibitory Conc. ([1]; glycoproteins or proteins): > 333 µg/mL

GD1A
Inhibition of hemagglutination by gangliosides ([1]; at mg/ml concentrations): did not inhibit

Laminin
Minimal Inhibitory Conc. ([1]; glycoproteins or proteins): 6.8 µg/mL

Lysozyme: glycoprotein or protein tested as inhibitor
Minimal Inhibitory Conc. ([1]; glycoproteins or proteins): > 1000 µg/mL

Orosomucoid: sialoconjugate (sialoglycoprotein)
Conc. required to inhibit 2 HA units, T. augusta ([2]; sialoglycoproteins): 150 µg/mL | Conc. required to Inhibit 2 HA Units [6]: 500 µg/mL | Conc. required to inhibit 2 HA units, T. mobilensis ([3]; sialoglycoproteins): 150 µg/mL | Conc. required to inhibit 2 HA units, T. foetus ([4]; sialoglycoproteins): 150 µg/mL

glucuronic acid
Minimal Inhibitory Conc. ([1]; carbohydrates): > 100 mM

B1: Glycophorin: a major sialoglycoprotein of erythrocyte membranes (protein, UniProt P02724 20-150, looked up)
Glycophorin-A: LSTTEVAMHTSTSSSVTKSYISSQTNDTHKRDTYAATPRAHEVSEISVRTVYPPEEETGERVQLAHHFSEPEITLIIFGVMAGVIGTILLISYGIRRLIKKSPSDVKPLPSPDTDVPLSSVEIENPETSDQ
Conc. required to inhibit 2 HA units, T. augusta ([2]; sialoglycoproteins): 10 µg/mL | Conc. required to Inhibit 2 HA Units [6]: 10 µg/mL | Minimal Inhibitory Conc. ([1]; glycoproteins or proteins): 0.42 µg/mL | Conc. required to inhibit 2 HA units, T. mobilensis ([3]; sialoglycoproteins): 10 µg/mL | Conc. required to inhibit 2 HA units, T. foetus ([4]; sialoglycoproteins): 10 µg/mL

B2: Asialoglycophorin: glycophorin lacking the sialic acid (protein, UniProt P02724 20-150, looked up)
Glycophorin-A: LSTTEVAMHTSTSSSVTKSYISSQTNDTHKRDTYAATPRAHEVSEISVRTVYPPEEETGERVQLAHHFSEPEITLIIFGVMAGVIGTILLISYGIRRLIKKSPSDVKPLPSPDTDVPLSSVEIENPETSDQ
modifications: desialylated
notes: glycophorin lacking the sialic acid
Conc. required to inhibit 2 HA units, T. augusta ([2]; sialoglycoproteins): 500 µg/mL | Conc. required to Inhibit 2 HA Units [6]: 500 µg/mL | Minimal Inhibitory Conc. ([1]; glycoproteins or proteins): 83.3 µg/mL | Conc. required to inhibit 2 HA units, T. mobilensis ([3]; sialoglycoproteins): 500 µg/mL | Conc. required to inhibit 2 HA units, T. foetus ([4]; sialoglycoproteins): 500 µg/mL

B3: Asialofetuin: asialo- analog of fetuin (protein, UniProt P12763 19-359, looked up)
Alpha-2-HS-glycoprotein: IPLDPVAGYKEPACDDPDTEQAALAAVDYINKHLPRGYKHTLNQIDSVKVWPRRPTGEVYDIEIDTLETTCHVLDPTPLANCSVRQQTQHAVEGDCDIHVLKQDGQFSVLFTKCDSSPDSAEDVRKLCPDCPLLAPLNDSRVVHAVEVALATFNAESNGSYLQLVEISRAQFVPLPVSVSVEFAVAATDCIAKEVVDPTKCNLLAEKQYGFCKGSVIQKALGGEDVRVTCTLFQTQPVIPQPQPDGAEAEAPSAVPDAAGPTPSAAGPPVASVVVGPSVVAVPLPLHRAHYDLRHTFSGVASVESSSGEAFHVGKTPIVGQPSIPGGPVRLCPGRIRYFKI
modifications: desialylated
notes: asialo- analog of fetuin
Minimal Inhibitory Conc. ([1]; glycoproteins or proteins): 26.0 µg/mL
